{
  "source": "patent US20120040920A1",
  "about": "“OLIGOSACCHARIDE ALDONIC ACIDS AND THEIR TOPICAL USE” (priority 1999, published 2012)",
  "key": {"[1]": {"test": "antioxidant property, banana peel test method", "conditions": "for colour of banana peels: 1×2 cm peels in 5 ml 0.1 M solution, room temperature", "excerpt": "(§1) An antioxidant may be defined as a substance capable of preventing or inhibiting oxidation. […] The antioxidant property is readily determined by using any one of the following test methods: prevention or retardation of air oxidation of (a) anthralin, (b) hydroquinone, or (c) banana peel. A freshly prepared anthralin solution or cream is bright yellow, and an air oxidized one is brownish or black. A hydroquinone solution or cream is colorless or white color, and an air oxidized one is brownish or black. A freshly peeled banana peel is light yellow in color and an oxidized one ranges in color from tan, dark tan, brown to brownish black.\nFor example, in control experiments, fresh banana peels cut into sizes of 1×2 cm in 50 mm plastic petri dishes containing 5 ml water at neutral or acidic pH changed in color from white-yellowish to tan within 6 hours at room temperature, and changed to dark tan color during the next period of 24 to 72 hours.\nAntioxidant property of an oligosaccharide aldonic acid may also be determined by utilizing banana peel test method as follows.\nA fresh ripe banana peel cut into sizes of 2×2 cm has the outer layer light yellow in color. These freshly cut banana peels after exposed to air or immersed in an aqueous solution without an antioxidant in 50 mm plastic petri dishes rapidly changed in color from yellowish to tan within 3 hours, dark tan within 24 hours and brown black after 72 hours. A test substance including a positive control such as vitamin C, citric acid or N-acetylcysteine was prepared as 0.1 M concentration, and each test dish contained 5 ml test solution. Freshly cut banana peels 2×2 cm in sizes were immersed in 5 ml test solutions including known antioxidants and vehicle controls with pH at 7.0 and 4.0. […] The same results were also found for the known antioxidant substances; vitamin C, citric acid and N-acetylcysteine."}, "[2]": {"system": "skin changes associated with aging", "test": "skin thickness of forearm by micrometer calipers after topical application", "type": "in vivo, human", "conditions": "twice daily, four weeks, person", "procedure": "In one of the studies related to skin changes associated with aging, skin thickness was measured by micrometer calipers as follows:\nThe skin was grasped with a 2×6 cm metal hinge; the internal faces of which were coated with emery cloth to prevent slippage, and manually squeezed to threshold subject discomfort. Combined thickness of two whole-skin layers including thickness of the two hinge leaves was measured with micrometer calipers. Thickness of the two hinge leaves was subtracted to determine the actual thickness of two whole-skin layers. Triplicate measurements on treated sites were done and an average number was used for calculation of the skin thickness.\nA subject, topically applied twice daily to their left forearm for four weeks lactobionic acid 22% in a solution prepared from water 7 parts and propylene glycol 3 parts. After four weeks their right forearm was still loose and relatively thin, and the skin was relatively rough and dry. […] While there was no change in skin thickness of their right forearm, their left forearm had increased 12% in skin thickness as measured by the micrometer calipers described in the Example."}, "[3]": {"system": "skin fissures (open cuts)", "test": "topical treatment of skin fissures at finger tips", "type": "in vivo, human", "conditions": "10% oil-in-water cream twice daily, person", "procedure": "A subject, having two skin fissures (open cuts) 2-3 mm long at the finger tips, extending from the hyponychia, topically applied twice daily lactobionic acid 10% oil-in-water cream to one fissure for one week. The other fissure was treated with a vehicle control."}, "dry vaginal mucosa": {"system": "dry vaginal mucosa", "test": "topical treatment of dry vaginal mucosa", "type": "in vivo, human", "conditions": "5% in molecular complex with 0.5% L-arginine, oil-in-water cream pH 3.1, twice daily, one week, person", "procedure": "Lactobionic acid 50% aqueous solution 10 g was uniformly mixed with an oil-in-water base 80 g, and the cream thus obtained had pH 2.5. L-Arginine 5% solution 10 g prepared from 8 parts water and 2 parts propylene glycol by volume was added to form molecular complex of amphoteric system as shown by the increase of pH to 3.1. The composition thus formulated contained 5% lactobionic acid in molecular complex with 0.5% L-arginine.\nA subject, having dry vaginal mucosa topically applied the above bionic acid cream twice daily to the affected areas of the mucosa."}, "[4]": {"system": "linear wounds 1 cm in length and 0.5 mm in depth", "test": "healing of linear needle wounds on forearm", "type": "in vivo, human", "conditions": "2% in distilled water", "excerpt": "A sterile 22-gauge needle was held in the jaws of a surgical needle holder, and two linear wounds 1 cm in length and 0.5 mm in depth were made on alcohol-swabbed left forearm of a healthy subject. The wounds were swabbed dry with cotton balls. A control solution containing 0.9% sodium chloride in distilled water was applied to one wound, and a test solution containing 2% lactobionic acid in distilled water was applied to the other wound. Both wounds were covered with 3M Tegaderm tapes for five days. […] The erythema disappeared from both skin sites at the end of nine days."}, "[5]": {"system": "chronic gum disease of bleeding", "test": "oral gurgling treatment of chronic gum disease", "type": "in vivo, human", "conditions": "5% in molecular complex with 1% L-arginine, pH 3.3, gurgling twice daily, one week, person", "procedure": "Lactobionic acid 50% aqueous solution 10 g was diluted with 60 ml water and 10 ml propylene glycol, and the solution had pH 2.1. L-Arginine 5% solution 20 g prepared from 8 parts water and 2 parts propylene glycol by volume was added to form molecular complex of amphoteric system as shown by the increase of pH to 3.3. The composition thus formulated contained 5% lactobionic acid in molecular complex with 1% L-arginine.\nA subject, having chronic gum disease of bleeding during the tooth brushing, used the above bionic acid complex composition twice daily as a gurgling solution with at least one minute of contact time in oral cavity. No food or drink was taken for the next 30 minutes."}, "[6]": {"test": "antioxidant property, hydroquinone test method", "type": "physicochemical", "conditions": "oil-in-water cream, 2% hydroquinone, test substance 0.4 M, room temperature, 5 days", "excerpt": "as §1\nAntioxidant property of an oligosaccharide aldonic acid may also be determined by utilizing hydroquinone test method as follows. Hydroquinone also known as 1,4-dihydroxybenzene is a white powder, and a composition containing hydroquinone without a suitable antioxidant is chemically unstable even at room temperature. For example, hydroquinone 2% in an oil-in-water cream changed in color from white to grey within 2 hours, and the cream became light brown within 48 hours and dark brown after 72 hours at room temperature."}, "[7]": {"system": "contact dermatitis or erythema", "test": "topical treatment of facial erythema caused by glycolic acid cream", "type": "in vivo, human", "conditions": "5% partially neutralized cream, three applications over 24 hour period, person; control side persisted", "excerpt": "A subject, developed contact dermatitis or erythema on their face after topical applications of 20% unneutralized glycolic acid cream. They applied 5% partially neutralized lactobionic acid cream on the left side of their face and a control cream on the right side of their face."}},
  "data": [
    {"smiles": "O=C(O)[C@H](O)[C@@H](O)[C@H](O[C@@H]1O[C@H](CO)[C@H](O)[C@H](O)[C@H]1O)[C@H](O)CO", "note": "[lactobionic acid]", "values": [
      {"measurement": "colour of banana peels", "setting": "[1]; 24 hours", "value": "remained white-yellowish"},
      {"measurement": "colour of banana peels", "setting": "[1]; after 72 hours", "value": "changed in color to tan"},
      {"measurement": "colour change of banana peels", "setting": "[1]; 2×2 cm peels in 5 ml 0.1 M test solution, water control tan within 4 hours", "value": "did not change color"},
      {"measurement": "increase in skin thickness", "setting": "[2]; 22% in water/propylene glycol 7:3 solution, left forearm", "value": 12, "unit": "%"},
      {"measurement": "skin condition of treated forearm", "setting": "[2]; 22% solution", "value": "more firm and plump, and the skin was smooth, soft and not dry"},
      {"measurement": "healing of skin fissure", "setting": "[3]; after a week, vehicle site unhealed", "value": "skin fissure healed completely"},
      {"measurement": "pain of skin fissure", "setting": "[3]", "value": "pain disappeared after a few days"},
      {"measurement": "dryness of vaginal mucosa", "setting": "dry vaginal mucosa", "value": "dryness of vaginal mucosa disappeared completely"},
      {"measurement": "wound healing", "setting": "[4]; covered five days, end of one week, saline control not epithelialized", "value": "healed with re-epithelialization"},
      {"measurement": "time to disappearance of erythema", "setting": "[4]; same at control site", "value": "nine"},
      {"measurement": "gum bleeding during tooth brushing", "setting": "[5]", "value": "gum bleeding stopped or became less noticeable"},
      {"measurement": "colour change of hydroquinone cream", "setting": "[6]", "value": "did not change color"},
      {"measurement": "erythema of facial skin", "setting": "[7]", "value": "improved substantially and the erythema became less noticeable"}
    ]}
  ]
}
